Activity calls are given as the source filed them. For most assays here, no stated cut-off is given here; in the data, actives have a measured EC50 and inactives only a lower limit.
How the values were obtained:
[1] = HEp-2 cell cytotoxicity, dose response, cytotoxicity control for RSV inhibitor project, HTS (AID 2410); format: functional; conditions: human respiratory syncytial virus
[2] = target: T1, Heat shock factor protein 1 (Mus musculus, UniProt P38532); assay: inhibition of MG132-induced HSE-luciferase signal, confirmation, cell-based, NIH3T3, luminescence, dose retest (AID 2382); format: functional;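 further: NIH3T3 fibroblasts with HSF1-driven luciferase reporter stressed by proteasome inhibitor MG132; luminescence from HSF1-driven luciferase expression after 8 hours of MG132 stress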
T1 sequence (P38532 whole entry): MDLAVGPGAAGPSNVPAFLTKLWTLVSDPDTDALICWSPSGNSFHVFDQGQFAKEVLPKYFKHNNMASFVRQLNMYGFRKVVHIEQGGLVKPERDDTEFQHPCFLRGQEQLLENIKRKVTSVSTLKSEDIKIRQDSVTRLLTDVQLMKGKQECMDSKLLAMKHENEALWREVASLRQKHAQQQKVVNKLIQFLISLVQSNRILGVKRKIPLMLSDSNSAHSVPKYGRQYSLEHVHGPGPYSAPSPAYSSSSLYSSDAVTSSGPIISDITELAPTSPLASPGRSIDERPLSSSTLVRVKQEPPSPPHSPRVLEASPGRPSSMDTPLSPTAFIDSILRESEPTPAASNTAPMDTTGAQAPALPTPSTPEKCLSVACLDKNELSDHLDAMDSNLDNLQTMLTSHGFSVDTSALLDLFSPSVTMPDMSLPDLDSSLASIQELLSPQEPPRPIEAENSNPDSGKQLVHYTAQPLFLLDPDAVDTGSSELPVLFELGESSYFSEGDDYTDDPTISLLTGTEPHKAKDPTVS

[3] = target: T2, Corticotropin-releasing factor receptor 2/Corticotropin-releasing factor-binding protein (Homo sapiens, UniProt P24387+Q13324); assay: activators of CRF receptor 2 with binding protein – uHTS hits, confirmation (AID 602473); format: functional; conditions: read-out: EC50_Mean
T2 sequence (Q13324 whole entry): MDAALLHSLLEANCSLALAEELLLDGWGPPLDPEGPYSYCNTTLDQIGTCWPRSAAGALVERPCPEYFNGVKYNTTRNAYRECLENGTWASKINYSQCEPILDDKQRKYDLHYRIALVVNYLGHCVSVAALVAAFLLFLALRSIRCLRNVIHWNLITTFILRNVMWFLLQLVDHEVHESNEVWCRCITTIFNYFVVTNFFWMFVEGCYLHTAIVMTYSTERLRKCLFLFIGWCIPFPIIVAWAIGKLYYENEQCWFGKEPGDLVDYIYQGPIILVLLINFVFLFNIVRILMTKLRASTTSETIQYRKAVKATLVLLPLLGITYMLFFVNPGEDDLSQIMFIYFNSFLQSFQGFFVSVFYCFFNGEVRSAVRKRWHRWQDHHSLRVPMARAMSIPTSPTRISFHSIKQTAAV
T2 sequence (P24387 whole entry): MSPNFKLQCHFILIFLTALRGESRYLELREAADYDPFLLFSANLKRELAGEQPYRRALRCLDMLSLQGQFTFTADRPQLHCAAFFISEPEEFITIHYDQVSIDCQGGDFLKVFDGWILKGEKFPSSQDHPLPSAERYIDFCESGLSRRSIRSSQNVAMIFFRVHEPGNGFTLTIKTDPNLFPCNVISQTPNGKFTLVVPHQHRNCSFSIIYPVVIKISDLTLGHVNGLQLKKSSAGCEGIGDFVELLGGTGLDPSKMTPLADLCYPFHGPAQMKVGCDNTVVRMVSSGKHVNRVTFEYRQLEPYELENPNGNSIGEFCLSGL

H4 = assay: Luminescence Cell-Based Dose Response HTS to Identify Activators of 5'UTR Stem-Loop Driven Prion Protein mRNA Translation in H4 Neuroglioblastoma Cells. [Related pubchem assays: 1829 (Project Summary), 1814 (Primary HTS)]; format: functional; conditions: Homo sapiens
[4] = Luminescence Cell-Based Dose Confirmation HTS to Identify Activators of 5'UTR Stem-Loop Driven Alpha-Synuclein mRNA Translation in H4 Neuroglioblastoma Cells. [Related pubchem assays: 1829 (Project Summary), 1814 (Primary HTS)]; format: functional
[5] = Luminescence Cell-Based Dose Response HTS to Identify Activators of Luciferase Translation or Activity in H4 […] Cells. [Related pubchem assays: 1829 (Project Summary), 1814 (Primary HTS)]; format: functional
[6] = Luminescence Cell-Based Dose Response HTS to Identify Inhibitors of 5'UTR Stem-Loop Driven Prion Protein mRNA Translation in H4 Neuroglioblastoma Cells. [Related pubchem assays: 1827 (Project Summary), 1813 (Primary HTS)]; format: functional
[7] = inhibitors of firefly luciferase expression or activity, dose response, H4 neuroglioma cells, luminescence (AID 1990); format: functional, cell-based
[8] = inhibitors of SNCA 5'UTR-driven reporter translation, confirmation, H4 neuroglioma cells, luminescence (AID 1988); format: functional, cell-based
[9] = NIH-3T3 fibroblast cytotoxicity, dose response, cytotoxicity control, cell-based, fluorescence, Alamar Blue, secondary assay (AID 2327); format: functional;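 further: NIH-3T3 mouse fibroblasts cultured with fluconazole at 8 µg/mL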
[10] = tested on: Streptococcus sp. 'group A'; assay: growth inhibition of control SK(-) GAS strain, dose response, counter-screen for streptokinase expression inhibitor project, luminescence, kanamycin, BacTiterGlo, confirmation (AID 1900); format: functional, organism-based
Streptokinase A = target: T3, Streptokinase A (Streptococcus pyogenes serotype M1, UniProt P10520); assay: S. pyogenes streptokinase expression inhibitors, potency, dose response, plasminogen activation absorbance, OD405 (AID 1914); format: functional, Streptococcus pyogenes M1 GAS;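 further: secreted streptokinase activity via plasminogen activation per viability signal from cell pellet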
T3 sequence (P10520 whole entry): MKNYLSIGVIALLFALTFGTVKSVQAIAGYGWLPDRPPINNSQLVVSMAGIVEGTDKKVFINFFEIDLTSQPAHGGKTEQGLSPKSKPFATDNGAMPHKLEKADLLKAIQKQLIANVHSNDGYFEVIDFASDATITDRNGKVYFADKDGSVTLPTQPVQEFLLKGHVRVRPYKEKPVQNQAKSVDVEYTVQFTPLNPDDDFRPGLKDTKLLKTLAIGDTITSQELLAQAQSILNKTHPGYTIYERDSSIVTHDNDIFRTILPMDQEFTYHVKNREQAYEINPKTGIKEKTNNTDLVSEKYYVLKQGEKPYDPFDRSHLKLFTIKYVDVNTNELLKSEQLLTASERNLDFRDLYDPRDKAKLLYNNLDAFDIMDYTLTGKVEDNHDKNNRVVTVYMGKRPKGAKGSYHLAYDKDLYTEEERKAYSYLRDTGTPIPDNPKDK

Streptococcus = assay: Group A Streptococcus viability loss, dose response, counter-screen for streptokinase expression inhibitor project, luminescence, BacTiterGlo (AID 1915); format: functional, organism-based;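 further: potency for reduction of bacterial viability or growth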

## C#CCN1C(C)=C(C(=O)OC)C(c2cccc([N+](=O)[O-])c2)C(C(=O)OCC)=C1C (stereo not drawn)
[1]
  CC50: 24.8 µM (active)

## OC(COc1c(F)cc(Br)cc1F)CN1CCN(c2ccc(F)cc2)CC1 (stereo not drawn)
[2]
  EC50: > 195 µM (not active)

## Cc1[nH]c2ccccc2c1C(=O)CN1CCCCC1C (stereo not drawn)
[3]
  EC50: 9.87 µM (active)

## COc1ccc(/C=C2\SC(=O)N(CCNC(=O)Cc3coc4cc(OC)ccc34)C2=O)cc1
H4
  EC50: 10.4 µM (active)
[4]
  EC50: 23.4 µM (active)
[5]
  EC50: 11.5 µM (active)

## COc1nc(-c2ccccc2)cc(-c2ccc3c(c2)OCO3)c1C#N
[6]
  EC50: 27.6 µM (active)
[7]
  EC50: 11.2 µM (inconclusive)
[8]
  EC50: 3.63 µM (active)

## Cc1nn(-c2ccccc2)c(C)c1C(=O)OCC(=O)N(C)C1CCS(=O)(=O)C1 (stereo not drawn)
[4]
  EC50: 0.313 µM (active)
[5]
  EC50: 12.5 µM (active)

## CSc1c(CC(=O)Nc2ccccc2)n(C)c2ccccc12
[6]
  EC50: > 120 µM (not active)
[7]
  EC50: > 120 µM (not active)
[8]
  EC50: 0.344 µM (inconclusive)

## Nc1n[nH]c(-c2cccc([N+](=O)[O-])c2)n1
[9]
  EC50: > 150 µM (inactive)

## CCOC(=O)Cc1csc(NC(=O)c2ccc(S(=O)(=O)N3CCCCC3)cc2)n1
[1]
  CC50: 11.5 µM (active)

## COc1cccc(N2CCN(CC(=O)c3c[nH]c4ccc(OC)cc34)CC2C)c1 (stereo not drawn)
[1]
  CC50: 38.1 µM (active)

## COc1cc(C(C)=O)ccc1OCc1cc(C(=O)N(C)CCC2CCCCO2)no1 (stereo not drawn)
H4
  EC50: 7.86 µM (active)
[4]
  EC50: 0.831 µM (active)
[5]
  EC50: 80.8 µM (active)

## Cc1ccc(/C=C2\SC(N3CCCCC3)=NC2=O)cc1
H4
  EC50: 45.1 µM (active)
[4]
  EC50: 53.1 µM (active)
[5]
  EC50: 10.1 µM (active)

## O=C(c1ccccc1Cl)N1N=C(c2ccc(Br)cc2)CC1c1nc2ccccc2[nH]1 (stereo not drawn)
[1]
  CC50: 14.3 µM (active)

## Cc1c(Cl)ccc2c(C(=O)NC(C)c3ccncc3)cc(-c3ccncc3)nc12 (stereo not drawn)
[1]
  CC50: 25.1 µM (active)

## CCOC(=O)C1CCCN(Cc2cc(=O)oc3cc(C)c(C(C)C)cc23)C1 (stereo not drawn)
[1]
  CC50: 31.3 µM (active)

## CN(Cc1ccsc1)C(=O)Cn1cc(Br)ccc1=O
H4
  EC50: 31.7 µM (active)
[4]
  EC50: > 120 µM (not active)
[5]
  EC50: 8.64 µM (active)

## O=S(=O)(c1cccc(-c2nnc(SCc3nc4ccccc4s3)o2)c1)N1CCOCC1
H4
  EC50: > 120 µM (not active)
[4]
  EC50: 5.25 µM (active)
[5]
  EC50: 21.4 µM (active)

## CC(=O)O[C@H]1CC[C@@]2(C)[C@@H](CC[C@@H]3[C@@H]2CC[C@]2(C)[C@@H](C(C)(C)O)C[C@@H]32)C1
[1]
  CC50: 36.9 µM (active)

## COc1ccc(C(=O)NCc2cc3ccccc3n2C)cc1
H4
  EC50: 9.84 µM (active)
[4]
  EC50: 7.51 µM (active)
[5]
  EC50: 12 µM (active)

## OCCCNc1nc(-c2ccc(Cl)cc2)nc2ccccc12
[1]
  CC50: > 50 µM (active)

## Cc1ccc(N(CC(=O)NCCSc2nc3ccccc3s2)S(=O)(=O)c2ccccc2)c(C)c1
[6]
  EC50: > 120 µM (not active)
[7]
  EC50: > 120 µM (not active)
[8]
  EC50: 14.8 µM (active)

## COc1cc(CN(C2CCCCC2C)S(=O)(=O)c2ccc(S(=O)(=O)NC3CC3)cc2)cc(OC)c1OC (stereo not drawn)
[6]
  EC50: > 120 µM (not active)
[7]
  EC50: 103 µM (active)
[8]
  EC50: > 120 µM (not active)

## Cc1[nH]c2ccc(C(=O)OC(C)C(=O)NC3CCCCC3C)cc2c1C (stereo not drawn)
[1]
  CC50: 12.1 µM (active)

## Cc1c(C(=O)Nc2nnc(C(F)(F)F)s2)oc2ccccc12
H4
  EC50: 72.7 µM (active)
[4]
  EC50: 3.22 µM (active)
[5]
  EC50: 6.63 µM (active)

## O=C(NCc1ccncc1)C(=O)Nc1nc(C23CC4CC(CC(C4)C2)C3)cs1
[2]
  EC50: > 195 µM (not active)

## Cc1ccc(-c2nnc(SCC#CCOC(=O)c3cccs3)o2)cc1
H4
  EC50: 13.8 µM (active)
[4]
  EC50: 8.34 µM (active)
[5]
  EC50: 37.3 µM (active)

## Cn1c(-c2ccsc2)c(-c2cccs2)c2cc(-c3cccc4[nH]ccc34)ccc21
[1]
  CC50: 32.1 µM (active)

## COc1ccc2nc(-n3c(C)ccc3C)sc2c1
H4
  EC50: 60.8 µM (active)
[10]
  EC50: > 150 µM (not active)
[4]
  EC50: 38 µM (active)
Streptokinase A
  EC50: > 150 µM (not active)
Streptococcus
  EC50: > 150 µM (not active)
[5]
  EC50: 8.93 µM (active)

## CCCCc1c(C)nn(-c2nnc3c4ccccc4n(CC)c3n2)c1C
[10]
  EC50: 4.61 µM (active)
Streptokinase A
  EC50: > 150 µM (not active)
Streptococcus
  EC50: > 150 µM (not active)
[1]
  CC50: 5.26 µM (active)

## Cc1ccccc1C1=Nc2c(c(=O)n(C)c(=O)n2C)C(C(F)(F)F)(C(F)(F)F)N1
[1]
  CC50: > 50 µM (active)

## COC(=O)c1cnc(Oc2ccc(NC(=O)NC(=O)c3c(OC)cccc3OC)cc2)cc1C(F)(F)F
[6]
  EC50: 0.142 µM (active)
[7]
  EC50: 0.293 µM (active)
[8]
  EC50: 0.111 µM (active)

## CCOC(=O)C1(CCc2ccccc2)CCN(C(=O)CCn2cncn2)CC1
H4
  EC50: 7.67 µM (active)
[4]
  EC50: 28.8 µM (active)
[5]
  EC50: 12 µM (active)

## O=C(Nc1cccc(-c2cn3c(n2)SCC3)c1)c1ccc(Br)o1
[9]
  EC50: > 150 µM (inconclusive)

## CCOc1cc(-c2cc(-c3ccc(C)cc3)nc(N)c2C#N)ccc1O
[6]
  EC50: > 120 µM (not active)
[7]
  EC50: 14.7 µM (active)
[8]
  EC50: 10.7 µM (active)

## CCN(CC)CCSc1nnc2c3ccccc3n(CCc3ccccc3)c2n1
H4
  EC50: > 120 µM (not active)
[4]
  EC50: > 120 µM (not active)
[5]
  EC50: 16.1 µM (active)

## COCC1CCN(Cc2nc(-c3ccc4c(c3)OCO4)no2)C1 (stereo not drawn)
H4
  EC50: 45 µM (active)
[3]
  EC50: > 53 µM (inactive)
[4]
  EC50: 10.1 µM (active)
[5]
  EC50: 13.1 µM (active)

## O=C1NC(=O)C2(N1)C(=O)c1cccc3cccc2c13 (stereo not drawn)
[3]
  EC50: 8.84 µM (active)

## Cn1c(SCC(=O)N/N=C/c2cc([N+](=O)[O-])ccc2O)nnc1-c1ccccc1
[3]
  EC50: > 53 µM (inactive)

## Fc1cccc(/C=N/NC(=S)Nc2ccccc2Cl)c1
H4
  EC50: > 120 µM (not active)
[4]
  EC50: 19.6 µM (active)
[5]
  EC50: 4.14 µM (active)

## CC(=O)COc1ccc2c3c(c(=O)oc2c1C)CCCCC3
H4
  EC50: > 120 µM (not active)
[4]
  EC50: 28.8 µM (active)
[5]
  EC50: 38.4 µM (active)
